# Measurements taken from patent publication US10548906B2, “Methods of promoting hepatic regeneration” (Intercept Pharmaceuticals, Inc., priority 2015, dated 2020).
# Assays:
# Wistar rats = test: Hepatobiliary injury markers and histology in rBDL rats before and after PHx (Example 6); format: in vivo, rat
# Description: At baseline (i.e., directly before PHx) and one to five days after PHx, animals were euthanized under isoflurane anesthesia by exsanguination. Blood samples were collected from the caval vein in heparin-anticoagulated vacutainers (BD, Franklin Lakes, N.J.) and centrifuged for 10 min (3000×g, 4° C.). In rBDL animals sacrificed at baseline, bile was aspirated with a syringe from the dilated extrahepatic bile duct, weighed, and stored at −80° C. The liver and ileum were excised, weighed, loafed, and either fixed in a 10% (vol/vol) neutralized formalin solution (J. T. Baker, Center Valley, Pa.), snap-frozen in liquid nitrogen and stored at −80° C., or collected in RNAlater (Qiagen, Venlo, the Netherlands) and stored at −20° C. Liver regrowth was calculated from the regenerated liver mass, and was expressed as percentage of total liver mass prior to PHx. The projected remnant liver mass was calculated using the weight of the resected liver segments, which represent 70% of the total liver mass. Dry liver weights were measured to correct for hepatic water content [Kloek 2010a].
# After formalin fixation, liver specimens were dehydrated, paraffin-embedded, and stained with hematoxylin and eosin (H&E), the collagen type I and III stain picrosirius red, or the proliferation marker Ki67 [Marsman 2013]. Semi-quantitative analysis of H&E- and picrosirius red-stained liver histology was performed by an experienced hepatopathologist (JV) blinded to the experimental groups using a scoring system detailed in Table 1. Ki67-positive hepatocyte nuclei were manually counted by two observers (RFG and PBO) in four randomly-selected microscopic fields at 200× magnification.
# [1] = tested on: New Zealand White rabbits; test: Liver injury after PVE: clinical chemistry and H&E histology (Example 5); format: in vivo, rabbit
# Description: (§1) Liver tissue (left lateral and caudal lobes) was fixed in buffered formalin for 48 h, and subsequently dehydrated and embedded in paraffin. Four-micron sections of liver tissue were cut and stained with standard hematoxylin and eosin stain. Sections were scored for lobular and portal inflammation according to Table 1. Additionally, liver sections were stained with Ki67 antibodies to quantify hepatocyte proliferation, and hematoxylin counterstain as described in detail previously (van der Loos C M, et al. J Histochern Cytochern 2013; 61(1):11-8; Marsman H A, et al. Br J Surg 2013; 100(5):674-83). Ki67-positive hepatocytes were counted in a total of five high power fields per animal, by a hepatopathologist (JV) blinded to the group allocation. Liver histology was assessed at day 3 and 7 for n=6 per treatment group.
# Serum alanine transaminase (ALT), amino aspartate aminotransferase (AST), gamma-glutamyl transferase (γGT), and alkaline phosphatase (ALP) were determined by the Department of Clinical Chemistry (Academic Medical Center, Amsterdam, The Netherlands) using a Cobas 8000 modular analyzer (Roche, Basel, Switzerland) on samples obtained from 12 animals per treatment group.
# [2] = tested on: New Zealand White rabbits; test: Hepatobiliary scintigraphy, 99mTc-mebrofenin uptake after PVE (Example 5); format: in vivo, rabbit
# Description: Liver function was assessed using hepatobiliary scintigraphy (HBS) with ^99mTc-labeled (2,4,6 trimethyl-3-bromo) iminodiacetic acid (^99mTc-mebrofenin, Bridatec, GE Healthcare, Eindhoven, the Netherlands) at days −7, −1, +3 and +7. Rabbits (n=6 per treatment group) were anesthetized and positioned on an imaging table with the liver and heart positioned under a large field-of-view single photon emission computed tomography (SPECT/CT) camera (Siemens Symbia T16). Regions of interest were drawn around the left ventricle for blood pool readings, around the entire liver for total liver uptake, and around the caudal liver lobe (FIG. 10; the yellow region of interest (ROI) delineates the left ventricle, the red ROI the total liver and the pink ROI the caudal liver lobe; a marked decrease in cranial liver lobe activity and increase in caudal liver lobe activity was seen following portal vein embolization.). Per rabbit, a dose of 50 MBq ^99mTc-mebrofenin was administered via a lateral ear vein directly before the start of acquisition.
# The geometric mean dataset of the anterior and posterior cameras was used for analysis. Hepatic ^99mTc-mebrofenin uptake rate was calculated as an increase of ^99mTc-mebrofenin uptake over two minutes, corrected for perfusion. Total liver uptake was represented by the total hepatic ^99mTc-mebrofenin uptake rate, and calculated as a percentage of the injected dose per minute. The fractional ^99mTc-mebrofenin uptake rate was calculated for the caudal liver lobe, based of distribution of segmental activity and was corrected for baseline measurements at t=−7 days.
# [3] = tested on: Ki67-positive hepatocytes; test: Ki67 staining of liver sections, hepatocyte proliferation after PVE (Example 5); format: in vivo, rabbit
# Description: as §1
# [4] = prior to PHx, vs control and untreated rBDL
smiles,measurement,setting,value
"CC[C@H]1[C@@H](O)[C@@H]2[C@H](CC[C@]3(C)[C@@H]([C@H](C)CCC(=O)O)CC[C@@H]23)[C@@]2(C)CC[C@@H](O)C[C@@H]12 [Compound 1, 3α,7α-dihydroxy-6α-ethyl-5β-cholanic acid]",bilirubin clearance,Wistar rats; after PHx,lagged marginally
same,decline of ALP levels,Wistar rats; after PHx,~4 fold
same,time to normalization of hepatobiliary injury markers,"Wistar rats; after PHx, rBDL groups, recovery more gradual with OCA",≤ 48 h
same,ALP levels vs other study arms,Wistar rats; during regeneration,remained higher
same,liver injury after hepatectomy,Wistar rats; histology day 5 after PHx,did not exacerbate liver injury after hepatectomy
same,plasma gamma glutamyltransferase,Wistar rats; prior to PHx,followed the same dynamics as ALP
same,plasma alanine aminotransferase (ALT),Wistar rats; [4],considerably higher
same,plasma alkaline phosphatase (ALP),Wistar rats; [4],considerably higher
same,plasma ALP vs vehicle,[1]; after PVE,slightly higher
same,plasma γGT vs vehicle,[1]; after PVE,slightly higher
same,hepatocellular injury or cholestasis,"[1]; conclusion from ALT, AST, γGT, ALP",did not cause hepatocellular injury or cholestasis
same,histological scoring of H&E sections of the caudal lobe,"[1]; day 3 and 7, vs vehicle, listed as OCA",no differences between groups
same,plasma transaminase levels vs vehicle,[1]; summary,similar
same,increase in contribution of caudal liver lobe (CLF share) to total liver mebrofenin uptake,[2]; 3 days after PVE,44.5±5.4%
same,increase in caudal liver function relative to vehicle,[2]; day +3,1.2 fold
same,total liver uptake of mebrofenin,"[2]; days −1, +3, +7, N=6",remained stable in both groups
same,number of Ki67-positive hepatocytes relative to vehicle,[3]; 3 days after PVE,1.6 fold
same,Ki67-positive hepatocytes vs vehicle,[3]; day +3,Increased numbers
